Test systems include 786-0; BT-549; COLO 205; HCC 2998; HL-60; HT-29; IGROV-1; K562; KM12; M14; MCF7; MDA-MB-231; NCI-H460; RXF 393; SF-295; SK-MEL-2; SNB-19; SNB-75; TK-10; Malme-3M.
What all share (assay): inhibition of tumour cell growth, NCI panel, 48 h

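Five compound concentrations were applied to cells in 96-well plates for 48 hours; endpoints were derived by simple linear interpolation of the resulting dose-response curve. The concentration for 50% growth inhibition is given as GI50.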 The source made the active and inactive calls. No stated cut-off is given here; in the data, active = GI50 up to about 1.1 µM and inactive = higher. A value given as a limit tells only on which side of the number the result lay.

In the case of `O=C1c2cc3ccccc3cc2C2(c3ccc(Cl)cc3)NCCN12` (stereo unspecified), the GI50 was 38.1 µM (inactive) with 786-0; 54 µM (inactive) in the test with BT-549; 17.6 µM (inactive) with COLO 205; 21.1 µM (inactive) in the test with HCC 2998; 25.8 µM (inactive) in the test on HL-60; 34.8 µM (inactive) in the test on HT-29. Also, the GI50 with IGROV-1 is 27.4 µM (inactive); in the test on K562, 61.7 µM (inactive); in the test on KM12, 20.7 µM (inactive); in the test with M14 it was 26.8 µM (inactive); in the test on MCF7, 26.2 µM (inactive); in the test on MDA-MB-231 it was 87.7 µM (inactive). Further, the GI50 is 29.6 µM (inactive) with NCI-H460; 21.8 µM (inactive) in the test with RXF 393; 25.5 µM (inactive) in the test on SF-295; 24.6 µM (inactive) with SK-MEL-2; 24.5 µM (inactive) with SNB-19; 27.8 µM (inactive) in the test with SNB-75. Also, the GI50 in the test with TK-10 is 34.8 µM (inactive).

For the compound `CCOC(=O)c1sc(=S)n(-c2ccc(Cl)cc2)c1-n1cc(-c2ccccc2)c(C#N)c1N`, the GI50 in the test on 786-0 was 11 µM (inactive); in the test on BT-549, 23.7 µM (inactive); in the test on COLO 205, > 100 µM (inactive); in the test on HCC 2998, 34.2 µM (inactive); with HL-60, 34.2 µM (inactive); in the test on HT-29 it was 51.6 µM (inactive). In addition, the GI50 in the test with IGROV-1 is 15.3 µM (inactive); with K562, 44.4 µM (inactive); in the test on KM12, > 100 µM (inactive); in the test on M14 it was 53.1 µM (inactive); with MCF7 it was 15.7 µM (inactive); in the test on MDA-MB-231, 17.6 µM (inactive). Besides, the GI50 in the test on NCI-H460 is 22.3 µM (inactive); in the test on RXF 393 it was 15.4 µM (inactive); in the test with SF-295, 13.3 µM (inactive); in the test with SK-MEL-2, 20.4 µM (inactive); with SNB-19 it was 19 µM (inactive); in the test on SNB-75 it was 16 µM (inactive). Besides, the GI50 in the test on TK-10 was 11.3 µM (inactive).

As for `O=[N+]([O-])c1cccc(-c2ncc3c(n2)-c2ccccc2C3)c1`, the GI50 with 786-0 was 22.9 µM (inactive); in the test on BT-549, > 100 µM (inactive); in the test on COLO 205, > 100 µM (inactive); with HL-60, > 100 µM (inactive); in the test with HT-29, > 100 µM (inactive); with IGROV-1, 53.2 µM (inactive). Besides, the GI50 with K562 was > 100 µM (inactive); in the test on KM12, > 100 µM (inactive); with M14, > 100 µM (inactive); with MCF7, > 100 µM (inactive); with MDA-MB-231, 20.5 µM (inactive); in the test on Malme-3M it was > 100 µM (inactive). The GI50 is > 100 µM (inactive) in the test with NCI-H460; 95.1 µM (inactive) with RXF 393; 54.3 µM (inactive) in the test on SF-295; > 100 µM (inactive) with SK-MEL-2; 30.3 µM (inactive) with SNB-19; 23.1 µM (inactive) in the test on SNB-75. The GI50 in the test on TK-10 was 47.1 µM (inactive).

As to `C/C(=N\NC(N)=S)c1ccccn1.OB(O)c1ccccc1`, the GI50 was 3.73 µM (inactive) with 786-0; 8.15 µM (inactive) in the test with BT-549; 3.85 µM (inactive) with COLO 205; 4.36 µM (inactive) with HCC 2998; 1.1 µM (active) in the test on HL-60; 6.47 µM (inactive) in the test on HT-29. The GI50 is 4.46 µM (inactive) with IGROV-1; 3.61 µM (inactive) with K562; 7.45 µM (inactive) in the test with KM12; 2.98 µM (inactive) in the test with M14; 4.55 µM (inactive) in the test with MCF7; 7.16 µM (inactive) with MDA-MB-231. Also, the GI50 in the test with Malme-3M was 8.63 µM (inactive); with NCI-H460, 3.78 µM (inactive); in the test with RXF 393 it was 2.37 µM (inactive); in the test on SF-295, 7.05 µM (inactive); in the test with SNB-19, 10.5 µM (inactive); in the test on SNB-75, 12.9 µM (inactive). In the test with TK-10, the GI50 is 14 µM (inactive).

Source of the values: ChEMBL document CHEMBL1201862, “PubChem BioAssay data set” (2004).
